Experimental data from patent US20250186391A1, “ORAL COMPLEMENT FACTOR D INHIBITORS” (BioCryst Pharmaceuticals, Inc., priority 2019, published 2025).

molecular target: Factor D (Homo sapiens (Human), UniProt P00746); assay: Factor D esterolytic assay; format: biochemical; conditions: Z-Lys-SBzl substrate, 100 mM HEPES, 500 mM NaCl, pH 7.5, 10% DMSO; tested a minimum of three times; read-out: Measured Ki (IC50) Value for Compounds: IC50
Method: The IC50 value of a compound (i.e., the concentration of the compound that inhibits 50% of the enzymatic activity) was calculated according to the procedure reported in U.S. Pat. No. 6,653,340 B1, e.g., column 74 (incorporated by reference).
Specifically, the compounds were dissolved in a stock solution of DMSO at 10.0 or 100 mM. A portion of this stock solution was added to assay buffer in a final volume of 50 μL. Controls included buffer alone and enzyme solutions to which DMSO was added. Substrate was added to the reaction wells immediately or after incubation at room temperature. The reaction rates were measured spectrophotometrically by the generation of product at 405 nm for 600 sec. Background absorbance at 690 nm was measured and subtracted from the absorbance at 405 nm for each well.
The reaction rate for enzyme alone was compared to the rate of enzyme in the presence of inhibitor and the percent inhibition was calculated as shown below: […]
An established esterolytic assay for the measurement of Factor D activity and inhibition of Factor D activity was used (Kam, C. M.; McRae, B. J.; Harper, J. W.; Niemann, M. A.; Volanakis, J. E.; Powers, J. C. Human complement proteins D, C2, and B Active site mapping with peptide thioester substrates. J Biol. Chem. 1987, 262, 3444-3451). For this assay Z-Lys-SBzl, 1.29 mM (Kim, S.; Narayana, S. V. L; Volanakis, J. E. Mutational analysis of the substrate binding site of human complement Factor D. Biochemistry. 1994, 33, 14393-14399.) was used as the substrate for Factor D ([…]). Hydrolysis of this compound by Factor D liberated a free sulfhydryl group which is then reacted with 5,5′-dithiobis(2nitrobenzoic acid) producing an intense yellow color (Habeeb, A. F. S. A. Reaction of protein sulfhydryl groups with Ellman's Reagent. Methods in Enzymol. 1976, 25, 457-464.). The assays were performed in 96 well microtiter plates and rates of hydrolysis were monitored at 405 nm on a Biotek Synergy H1 plate reader. Hydrolysis rates were reported as change in mOD/min. The assay was conducted in 100 mM HEPES, 500 mM NaCl, pH 7.5 containing 10% DMSO in a final volume of 50 μL per well.
An IC50, a compound concentration which inhibits 50% of the enzymatic activity, was calculated. Compounds in the examples were tested a minimum of three times.

Sequence of Factor D (P00746 26-253): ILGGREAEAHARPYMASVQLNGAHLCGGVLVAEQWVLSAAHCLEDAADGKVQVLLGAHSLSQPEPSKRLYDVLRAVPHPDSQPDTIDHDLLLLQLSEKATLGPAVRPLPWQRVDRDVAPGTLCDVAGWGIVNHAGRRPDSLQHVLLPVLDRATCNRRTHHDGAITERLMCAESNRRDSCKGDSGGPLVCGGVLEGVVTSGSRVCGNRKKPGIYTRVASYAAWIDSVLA

IC50	SMILES
< 1 µM	CC(C)n1nc(COc2ccccc2CC(=O)O)c2cc(-c3cccc(CN)c3N)ccc21 [Compound 307c, 2-(2-((5-(2-amino-3-(aminomethyl)phenyl)-1-isopropyl-1H-indazol-3-yl)methoxy)phenyl)acetic acid]
1 to 10 µM	NCc1cccc(-c2cccc3cc(C(=O)Nc4ccccc4CC(=O)O)oc23)c1 [Compound 21b, 2-(2-(7-(3-(aminomethyl)phenyl)benzofuran-2-carboxamido)phenyl)acetic acid]
< 1 µM	NCc1cccc(-c2ccc3oc(C(=O)O)c(COc4ccccc4CC(=O)O)c3c2)c1 [Compound 55d, 5-(3-(aminomethyl)phenyl)-3-((2-(carboxymethyl)phenoxy)methyl)benzofuran-2-carboxylic acid]
1 to 10 µM	NCc1cccc(-c2ccc3occ(COc4ccccc4CCC(=O)O)c3c2)c1 [Compound 2d, 3-(2-((5-(3-(aminomethyl)phenyl)benzofuran-3-yl)methoxy)phenyl)propanoic acid]
< 1 µM	Cn1nc(COc2ccccc2CC(=O)O)c2cc(-c3cccc(CN)c3)c3occc3c21 [Compound 3021, 2-(2-((5-(3-(aminomethyl)phenyl)-1-methyl-1H-furo[2,3-g]indazol-3-yl)methoxy)phenyl)acetic acid]
< 1 µM	CC(C)n1nc(COc2ccccc2CC(=O)O)c2cc(-c3cccc(CN)c3O)ccc21 [Compound 318f, 2-(2-((5-(3-(aminomethyl)-2-hydroxyphenyl)-1-isopropyl-1H-indazol-3-yl)methoxy)phenyl)acetic acid]
< 1 µM	NCc1cccc(-c2ccc3oc(C(=O)NC4CC4)c(COc4ccccc4CC(=O)O)c3c2)c1 [Compound 64h, 2-(2-((5-(3-(aminomethyl)phenyl)-2-(cyclopropylcarbamoyl)benzofuran-3-yl)methoxy)phenyl)acetic acid]
< 1 µM	NCc1cccc(-c2ccc3occ(COc4cc(OC(F)(F)F)ccc4CC(=O)O)c3c2)c1 [Compound 110d, 2-(2-((5-(3-(aminomethyl)phenyl)benzofuran-3-yl)methoxy)-4-(trifluoromethoxy)phenyl)acetic acid]
< 1 µM	COc1ccc(CC(=O)O)c(OCc2c(CO)oc3ccc(-c4cccc(CN)c4)cc23)c1 [Compound 214c, 2-(2-((5-(3-(aminomethyl)phenyl)-2-(hydroxymethyl)benzofuran-3-yl)methoxy)-4-methoxyphenyl)acetic acid]
< 1 µM	NCc1cccc(-c2cc(C(F)F)c3occ(COc4ccccc4CC(=O)O)c3c2)c1 [Compound 262e, 2-(2-((5-(3-(aminomethyl)phenyl)-7-(difluoromethyl)benzofuran-3-yl)methoxy)phenyl)acetic acid]
< 1 µM	NCc1cccc(-c2cc(CC3CCOCC3)c3occ(COc4ccccc4CC(=O)O)c3c2)c1 [Compound 163e, 2-(2-((5-(3-(aminomethyl)phenyl)-7-((tetrahydro-2H-pyran-4-yl)methyl)benzofuran-3-yl)methoxy)phenyl)acetic acid]
< 1 µM	COc1ccc(CC(=O)O)c(OCc2c(C)oc3c(NCC4CC4)cc(-c4cccc(CN)c4)cc23)c1 [Compound 274c, 2-(2-((5-(3-(aminomethyl)phenyl)-7-((cyclopropylmethyl)amino)-2-methylbenzofuran-3-yl)methoxy)-4-methoxyphenyl)acetic acid]

More lines, now with the values behind:

SMILES	IC50
NCc1cccc(-c2ccc3occ(COc4ccccc4CC(=O)O)c3c2)c1 [Compound 9e, 2-(2-((5-(3-(aminomethyl)phenyl)benzofuran-3-yl)methoxy)phenyl)acetic acid]	< 1 µM
CC(O)c1oc2ccc(-c3cccc(CN)c3)cc2c1COc1ccccc1CC(=O)O (stereo not drawn) [Compound 125d, 2-(2-((5-(3-(aminomethyl)phenyl)-2-(1-hydroxyethyl)benzofuran-3-yl)methoxy)phenyl)acetic acid]	< 1 µM
NCc1cccc(-c2ccc3occ(COc4c(F)cccc4CC(=O)O)c3c2)c1 [Compound 44d, 2-(2-((5-(3-(aminomethyl)phenyl)benzofuran-3-yl)methoxy)-3-fluorophenyl)acetic acid]	< 1 µM
NCc1cccc(-c2cc3c(COc4ccccc4CC(=O)O)ccc(C4CC4)c3o2)c1 [Compound 291g, 2-(2-((2-(3-(aminomethyl)phenyl)-7-cyclopropylbenzofuran-4-yl)methoxy)phenyl)acetic acid]	1 to 10 µM
NCc1cccc(-c2cc3c(COc4ccccc4CC(=O)O)coc3c3occc23)c1 [Compound 229g, 2-(2-((5-(3-(aminomethyl)phenyl)benzo[1,2-b:6,5-b′]difuran-3-yl)methoxy)phenyl)acetic acid]	< 1 µM
NCc1cccc(-c2ccc3[nH]nc(COc4ccccc4CC(=O)O)c3c2)c1 [Compound 81a, 2-(2-((5-(3-(aminomethyl)phenyl)-1H-indazol-3-yl)methoxy)phenyl)acetic acid]	< 1 µM
NCc1cccc(-c2ccc3occ(COc4ccccc4CC(=O)O)c3c2)c1F [Compound 42b, 2-(2-((5-(3-(aminomethyl)-2-fluorophenyl)benzofuran-3-yl)methoxy)phenyl)acetic acid]	< 1 µM
NCc1cccc(-c2ccc3oc(C(O)C(F)(F)F)c(COc4ccccc4CC(=O)O)c3c2)c1 (stereo not drawn) [Compound 140c, 2-(2-((5-(3-(aminomethyl)phenyl)-2-(2,2,2-trifluoro-1-hydroxyethyl)benzofuran-3-yl)methoxy)phenyl)acetic acid]	< 1 µM
CN1CCN(Cc2cc(-c3cccc(CN)c3)cc3c(COc4ccccc4CC(=O)O)coc23)CC1 [Compound 157e, 2-(2-((5-(3-(aminomethyl)phenyl)-7-((4-methylpiperazin-1-yl)methyl)benzofuran-3-yl)methoxy)phenyl)acetic acid]	< 1 µM
CCCc1oc2ccc(-c3cccc(CN)c3)cc2c1COc1cc(C)ccc1CC(=O)O [Compound 285c, 2-(2-((5-(3-(aminomethyl)phenyl)-2-propylbenzofuran-3-yl)methoxy)-4-methylphenyl)acetic acid]	< 1 µM
CC(C)n1nc(COc2ccccc2CC(=O)O)c2cc(-c3cccc([C@H](C)N)c3)ccc21 [Compound 320b, (S)-2-(2-((5-(3-(1-aminoethyl)phenyl)-1-isopropyl-1H-indazol-3-yl)methoxy)phenyl)acetic acid]	< 1 µM
Cc1c(CN)cccc1-c1ccc2c(c1)c(COc1ccccc1CC(=O)O)nn2C(C)C [Compound 330c, 2-(2-((5-(3-(aminomethyl)-2-methylphenyl)-1-isopropyl-1H-indazol-3-yl)methoxy)phenyl)acetic acid]	< 1 µM
NCc1cc(-c2cc3c(COc4ccccc4CC(=O)O)cccc3o2)ccn1 [Compound 290h, 2-(2-((2-(2-(aminomethyl)pyridin-4-yl)benzofuran-4-yl)methoxy)phenyl)acetic acid]	< 1 µM
Cc1ccc(S(=O)(=O)n2cc(COc3ccccc3CC(=O)O)c3cc(-c4cccc(CN)c4)ccc32)cc1 [Compound 66f, 2-(2-((5-(3-(aminomethyl)phenyl)-1-tosyl-1H-indol-3-yl)methoxy)phenyl)acetic acid]	< 1 µM
NCc1cc(F)cc(-c2ccc3occ(Cc4cccc(CC(=O)O)c4O)c3c2)c1 [Compound 40d, 2-(3-((5-(3-(aminomethyl)-5-fluorophenyl)benzofuran-3-yl)methyl)-2-hydroxyphenyl)acetic acid]	1 to 10 µM
